Molecules are shown by their SMILES. Where a name gives a salt, the structure may show the parent alone.

Experimental findings from US8304427B2, “Acylthiourea compound or salt thereof, and use thereof” (Taiho Pharmaceutical Co., Ltd., priority 2008, dated 2012) are described below.

For the first assay, the target named is T1, c-Met (Homo sapiens, UniProt P08581). The assay can be described thus: c-Met inhibitory assay using AlphaScreen (Method A). The format is biochemical. To be noted: ATP 20 μM. On the set-up: purchased Carna bio Co., Ltd 08-051. The method, then: Inhibitory activity of compounds against c-Met kinase was determined through the following procedures. Method A) c-Met inhibitory assay using AlphaScreen™
A biotinylated peptide including a phosphorylated site of Pyk2 (Tyr402), which is reported as a bio-substrate in Clin. Cancer Res. vol. […] The mixture was allowed to react at room temperature for 20 minutes. EDTA was added to the reaction mixture to a final concentration of 50 mM, to thereby terminate reaction. […] The reaction was done for one hour at room temperature. Thereafter, the fluorescence intensity from the reaction mixture was measured using a multi-label counter (EnVision™, Perkin Elmer).
Target sequence in this assay (P08581 956-1390 limits assumed): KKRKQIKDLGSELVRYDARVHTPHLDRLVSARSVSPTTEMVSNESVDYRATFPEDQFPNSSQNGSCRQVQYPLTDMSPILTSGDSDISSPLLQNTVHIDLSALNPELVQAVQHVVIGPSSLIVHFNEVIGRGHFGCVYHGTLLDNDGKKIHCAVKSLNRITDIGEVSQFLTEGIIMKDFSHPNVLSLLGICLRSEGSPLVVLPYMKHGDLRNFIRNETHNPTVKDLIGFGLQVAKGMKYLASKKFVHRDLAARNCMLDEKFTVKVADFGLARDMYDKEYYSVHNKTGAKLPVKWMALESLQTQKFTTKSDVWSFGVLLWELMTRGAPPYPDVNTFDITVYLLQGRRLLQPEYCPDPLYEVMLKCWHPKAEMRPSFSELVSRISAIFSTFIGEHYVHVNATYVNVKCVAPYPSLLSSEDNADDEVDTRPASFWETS
Broadly, the IC50 is the concentration that gives 50% inhibition. A high value points to a need for much substance. In the case of `COc1cc2nccc(Oc3ccc(NC(=S)NC(=O)Cc4ccccc4)cc3F)c2cc1C(=O)NCCCOC(C)C` [Example 1, 4-(2-Fluoro-4-(3-(2-phenylacetyl)thioureido)phenoxy)-N-(3-isopropyloxypropyl)-7-methoxyquinoline-6-carboxamide], the IC50 was 210 nM.

Regarding `COc1cc2nccc(Oc3ccc(NC(=S)NC(=O)Cc4ccccc4)cc3F)c2cc1C(=O)NCC1COC(C)(C)O1` (centres unmarked) [Example 2, N-((2,2-Dimethyl-1,3-dioxolan-4-yl)methyl)-4-(2-fluoro-4-(3-(2-phenylacetyl)thioureido)phenoxy)-7-methoxyquinoline-6-carboxamide], the IC50 came to 167 nM.

Compound `COc1cc2nccc(Oc3ccc(NC(=S)NC(=O)Cc4ccccc4)cc3F)c2cc1C(=O)NCC(O)CO` (centres unmarked) [Example 3, N-(2,3-Dihydroxypropyl)-4-(2-fluoro-4-(3-(2-phenylacetyl)thioureido)phenoxy)-7-methoxyquinoline-6-carboxamide] displayed an IC50 of 62 nM. Against the preceding compound, the IC50 is about 2.7-fold lower.

Compound `COc1cc2nccc(Oc3ccc(NC(=S)NC(=O)Cc4ccccc4)cc3F)c2cc1C(=O)NCc1cccnc1` [Example 4, 4-(2-Fluoro-4-(3-(2-phenylacetyl)thioureido)phenoxy)-7-methoxy-N-(pyridin-3-ylmethyl)quinoline-6-carboxamide] had an IC50 of 140 nM.

In the case of `CNC(=O)c1cc2c(Oc3ccc(NC(=S)NC(=O)Cc4ccccc4)cc3F)ccnc2cc1OC` [Example 6, 4-(2-Fluoro-4-(3-(2-phenylacetyl)thioureido)phenoxy)-7-methoxy-N-methylquinoline-6-carboxamide], the IC50 stood at 104 nM.

For `COCCNC(=O)c1cc2c(Oc3ccc(NC(=S)NC(=O)Cc4ccccc4)cc3F)ccnc2cc1OC` [Example 7, 4-(2-Fluoro-4-(3-(2-phenylacetyl)thioureido)phenoxy)-7-methoxy-N-(methoxyethyl)quinoline-6-carboxamide], the half-inhibitory concentration (IC50) stood at 50 nM.

As for `CCN(CC)CCNC(=O)c1cc2c(Oc3ccc(NC(=S)NC(=O)Cc4ccccc4)cc3F)ccnc2cc1OC` [Example 8, N-(2-(Diethylamino)ethyl)-4-(2-fluoro-4-(3-(2-phenylacetyl)thioureido)phenoxy)-7-methoxyquinoline-6-carboxamide], the IC50 was determined as 106 nM.

The compound `COc1cc2nccc(Oc3ccc(NC(=S)NC(=O)Cc4ccccc4)cc3F)c2cc1C(=O)NCCN1CCOCC1` [Example 9, 4-(2-Fluoro-4-(3-(2-phenylacetyl)thioureido)phenoxy)-7-methoxy-N-(2-morpholinoethyl)quinoline-6-carboxamide] gave an IC50 of 102 nM.

`COc1cc2nccc(Oc3ccc(NC(=S)NC(=O)Cc4ccccc4)cc3F)c2cc1C(=O)NCCOCCO` [Example 10, 4-(2-Fluoro-4-(3-(2-phenylacetyl)thioureido)phenoxy)-N-(2-(2-hydroxyethoxy)ethyl)-7-methoxyquinoline-6-carboxamide] gave a half-inhibitory concentration (IC50) of 68 nM.

As for `COc1cc2nccc(Oc3ccc(NC(=S)NC(=O)Cc4ccccc4)cc3F)c2cc1C(=O)NCCNC(C)=O` [Example 11, N-(2-Acetamidoethyl)-4-(2-fluoro-4-(3-(2-phenylacetyl)thioureido)phenoxy)-7-methoxyquinoline-6-carboxamide], half-maximal inhibition (IC50) required 145 nM.

`COc1cc2nccc(Oc3ccc(NC(=S)NC(=O)Cc4ccccc4)cc3F)c2cc1C(=O)NC(CO)CO` [Example 12, N-(1,3-Dihydroxypropan-2-yl)-4-(2-fluoro-4-(3-(2-phenylacetyl)thioureido)phenoxy)-7-methoxyquinoline-6-carboxamide] showed an IC50 of 52 nM.

`COc1cc2nccc(Oc3ccc(NC(=S)NC(=O)Cc4ccccc4)cc3F)c2cc1C(=O)NC1CCNCC1` [Example 14, 4-(2-Fluoro-4-(3-(2-phenylacetyl)thioureido)phenoxy)-7-methoxy-N-(piperidin-4-yl)quinoline-6-carboxamide dihydrochloride] had an IC50 of 157 nM.

`COc1cc2nccc(Oc3ccc(NC(=S)NC(=O)Cc4ccccc4)cc3F)c2cc1C(=O)NC1CCCCNC1=O` (centres unmarked) [Example 16, 4-(2-Fluoro-4-(3-(2-phenylacetyl)thioureido)phenoxy)-7-methoxy-N-(2-oxoazepan-3-yl)quinoline-6-carboxamide] displayed an IC50 of 177 nM.

Compound `COc1cc2nccc(Oc3ccc(NC(=S)NC(=O)Cc4ccccc4)cc3F)c2cc1C(=O)NCC(=O)N1CCCC1` [Example 17, 4-(2-Fluoro-4-(3-(2-phenylacetyl)thioureido)phenoxy)-7-methoxy-N-(2-oxo-2-(pyrrolidin-1-yl)ethyl)quinoline-6-carboxamide] gave an IC50 of 30 nM.

`COc1cc2nccc(Oc3ccc(NC(=S)NC(=O)Cc4ccccc4)cc3F)c2cc1C(=O)NC1CCN(C(C)=O)CC1` [Example 18, N-(1-Acetylpiperidin-4-yl)-4-(2-fluoro-4-(3-(2-phenylacetyl)thioureido)phenoxy)-7-methoxyquinoline-6-carboxamide] showed an IC50 of 300 nM.

`CCC(O)CNC(=O)c1cc2c(Oc3ccc(NC(=S)NC(=O)Cc4ccc(F)cc4)cc3F)ccnc2cc1OC` (centres unmarked) [Example 23, 4-(2-Fluoro-4-(3-(2-(4-fluorophenyl)acetyl)thioureido)phenoxy)-N-(2-hydroxybutyl)-7-methoxyquinoline-6-carboxamide]: the IC50 is 250 nM.

On to `COc1cc2nccc(Oc3ccc(NC(=S)NC(=O)Cc4ccccc4)cc3F)c2cc1C(=O)NCC1(O)CCCCC1` [Example 25, 4-(2-Fluoro-4-(3-(2-phenylacetyl)thioureido)phenoxy)-N-((1-hydroxycyclohexyl)methyl)-7-methoxyquinoline-6-carboxamide], for which the IC50 came to 72 nM.

As to `COc1cc2nccc(Oc3ccc(NC(=S)NC(=O)Cc4ccccc4)cc3F)c2cc1C(=O)NCC1(O)CCOCC1` [Example 26, 4-(2-Fluoro-4-(3-(2-phenylacetyl)thioureido)phenoxy)-N-((4-hydroxytetrahydro-2H-pyran-4-yl)methyl)-7-methoxyquinoline-6-carboxamide], the midpoint of inhibition, the IC50, lay at 125 nM. This IC50 is about 1.7-fold higher than that of the compound before.

`COc1cc2nccc(Oc3ccc(NC(=S)NC(=O)Cc4ccccc4)cc3F)c2cc1C(=O)Nc1ccccc1C` [Example 28, 4-(2-Fluoro-4-(3-(2-phenylacetyl)thioureido)phenoxy)-7-methoxy-N-o-tolylquinoline-6-carboxamide]: the midpoint of inhibition, the IC50, lay at 94 nM.

In the case of `COc1cc2nccc(Oc3ccc(NC(=S)NC(=O)Cc4ccccc4)cc3F)c2cc1C(=O)N[C@H](CO)c1ccccc1` [Example 29, (S)-4-(2-Fluoro-4-(3-(2-phenylacetyl)thioureido)phenoxy)-N-(2-hydroxy-1-phenylethyl)-7-methoxyquinoline-6-carboxamide], inhibition was half-maximal at 234 nM (IC50).

The compound `COc1cc2nccc(Oc3ccc(NC(=S)NC(=O)Cc4ccccc4)cc3F)c2cc1C(=O)NCC(O)c1nnn(C)n1` (centres unmarked) [Example 30, 4-(2-Fluoro-4-(3-(2-phenylacetyl)thioureido)phenoxy)-N-(2-hydroxy-2-(2-methyl-2H-tetrazol-5-yl)ethyl)-7-methoxyquinoline-6-carboxamide] gave a half-inhibitory concentration (IC50) of 40 nM.

`COc1cc2nccc(Oc3ccc(NC(=S)NC(=O)Cc4ccccc4)cc3F)c2cc1C(=O)N1CCC(N2CCCC2)CC1` [Example 51, N-(3-Fluoro-4-(7-methoxy-6-(4-(pyrrolidin-1-yl)piperidine-1-carbonyl)quinolin-4-yloxy)phenylcarbamothioyl)-2-phenylacetamide] returned an IC50 of 134 nM.

`COc1cc2nccc(Oc3ccc(NC(=S)NC(=O)Cc4ccccc4)cc3F)c2cc1C(=O)N1CCC(O)C1` (centres unmarked) [Example 52, N-(3-Fluoro-4-(6-(3-hydroxypyrrolidine-1-carbonyl)-7-methoxyquinolin-4-yloxy)phenylcarbamothioyl)-2-phenylacetamide] displayed an IC50 of 142 nM.

Another assay concerns the target T1, c-Met. The assay can be described thus: c-Met inhibitory assay using DeskTop Profiler (Method B). The format is biochemical. On the set-up: made in house. To be noted: ATP 43 μM. The protocol:
Method B) c-Met Inhibitory Assay Using DeskTop Profiler
A dephosphorylation enzyme inhibitor cocktail (PhosSTOP, #4906837, product of Roche) and a protease inhibitor cocktail (Complete, Mini, EDTA-free, #1836170; product of Roche) were added to a reaction buffer (100 mM HEPES (pH: 7.5), 10 mM MgCl2, 0.003% Brij-35, 0.04% Tween, and 1 mM DTT). In the presence of the compound of the present invention, recombinant c-Met (purified product of Taiho Pharmaceutical Co., Ltd.), fluorescence-labeled c-Met substrate peptide (FL-Peptide 2, #760346, Caliper Life Sciences) (final concentration: 1.5 μM), and ATP (final concentration: 43 μM) were added thereto, and the mixture was allowed to react at 28° C. for 90 minutes. EDTA was added to the reaction mixture to a final concentration of 10 mM, to thereby terminate reaction. By use of DeskTop Profiler (#119900, Caliper Life Sciences), each fluorescence intensity of the substrate and that of the phosphorylated product was determined, whereby the amount of the formed phosphorylated product was determined. The compound concentration that realizes 50% inhibition of formation of phosphorylated product was defined as IC50 (μM), and the results are shown in the following Tables.
Target sequence in this assay (P08581 25-1390): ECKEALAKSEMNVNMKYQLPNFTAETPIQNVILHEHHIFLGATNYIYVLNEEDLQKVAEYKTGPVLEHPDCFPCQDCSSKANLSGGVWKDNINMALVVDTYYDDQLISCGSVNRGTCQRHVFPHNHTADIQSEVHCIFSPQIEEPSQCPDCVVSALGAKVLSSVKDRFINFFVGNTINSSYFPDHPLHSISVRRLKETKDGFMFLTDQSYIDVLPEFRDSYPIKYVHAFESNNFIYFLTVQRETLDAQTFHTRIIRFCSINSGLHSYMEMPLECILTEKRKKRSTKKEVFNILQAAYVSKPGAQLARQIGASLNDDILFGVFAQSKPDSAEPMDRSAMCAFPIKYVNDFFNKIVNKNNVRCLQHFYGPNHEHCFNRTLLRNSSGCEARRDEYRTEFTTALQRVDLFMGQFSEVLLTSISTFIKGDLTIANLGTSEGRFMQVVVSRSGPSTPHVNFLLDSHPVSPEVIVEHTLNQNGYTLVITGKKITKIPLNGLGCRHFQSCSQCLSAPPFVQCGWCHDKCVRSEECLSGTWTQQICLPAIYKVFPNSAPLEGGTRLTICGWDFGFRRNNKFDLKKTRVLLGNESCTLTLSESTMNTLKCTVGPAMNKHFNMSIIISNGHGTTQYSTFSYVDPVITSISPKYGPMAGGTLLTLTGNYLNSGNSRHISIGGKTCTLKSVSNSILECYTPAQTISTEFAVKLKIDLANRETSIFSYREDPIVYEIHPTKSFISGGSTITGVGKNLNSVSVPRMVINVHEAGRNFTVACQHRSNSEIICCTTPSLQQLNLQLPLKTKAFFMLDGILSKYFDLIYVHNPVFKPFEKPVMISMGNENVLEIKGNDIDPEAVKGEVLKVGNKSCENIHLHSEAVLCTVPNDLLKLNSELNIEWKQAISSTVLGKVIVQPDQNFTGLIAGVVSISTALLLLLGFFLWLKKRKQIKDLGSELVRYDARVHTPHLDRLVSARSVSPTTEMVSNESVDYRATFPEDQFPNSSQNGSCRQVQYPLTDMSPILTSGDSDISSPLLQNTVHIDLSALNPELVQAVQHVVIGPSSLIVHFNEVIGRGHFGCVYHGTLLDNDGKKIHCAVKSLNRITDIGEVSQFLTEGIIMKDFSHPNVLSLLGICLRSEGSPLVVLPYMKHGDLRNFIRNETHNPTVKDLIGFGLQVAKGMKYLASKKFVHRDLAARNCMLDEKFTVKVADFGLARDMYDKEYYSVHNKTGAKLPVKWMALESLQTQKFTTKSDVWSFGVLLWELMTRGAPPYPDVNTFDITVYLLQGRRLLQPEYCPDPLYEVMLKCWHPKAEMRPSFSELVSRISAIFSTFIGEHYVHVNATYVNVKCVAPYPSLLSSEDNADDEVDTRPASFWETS
In turn, `CC[C@@H](CO)NC(=O)c1cc2c(Oc3ccc(NC(=S)NC(=O)Cc4ccccc4)cc3F)ccnc2cc1OC` [Example 31, (S)-4-(2-Fluoro-4-(3-(2-phenylacetyl)thioureido)phenoxy)-N-(1-hydroxybutan-2-yl)-7-methoxyquinoline-6-carboxamide] had an IC50 of 26 nM.

`COCCNC(=O)CNC(=O)c1cc2c(Oc3ccc(NC(=S)NC(=O)Cc4ccccc4)cc3F)ccnc2cc1OC` [Example 33, 4-(2-Fluoro-4-(3-(2-phenylacetyl)thioureido)phenoxy)-7-methoxy-N-(2-(2-methoxyethylamino)-2-oxoethyl)quinoline-6-carboxamide] had an IC50 of 12 nM.

For `CCN(CC(C)(C)O)C(=O)CNC(=O)c1cc2c(Oc3ccc(NC(=S)NC(=O)Cc4ccccc4)cc3F)ccnc2cc1OC` [Example 35, N-(2-(Ethyl(2-hydroxy-2-methylpropyl)amino)-2-oxoethyl)-4-(2-fluoro-4-(3-(2-phenylacetyl)thioureido)phenoxy)-7-methoxyquinoline-6-carboxamide], the IC50 stood at 31 nM.
